According to PubChem BioAssay AID1963959 (Molecular Pharmacology Branch, DTP, NCI, 2024):

System: T-47D spheroids with HUVEC/MSC, viability
Assay: Anticancer human tumor T-47D cell line growth inhibition [PI3K];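 further: spheroids exposed to agents for seven days before reading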;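 on viability, T/C: percent of DMSO vehicle control luminescence so 100% = untreated growth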
Details: for IC50: curve of first compound; for viability, T/C: stronger effect = lower value
Outline: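 Three cell types, namely tumor cells, endothelial cells and mesenchymal stem cells, formed each spheroid. Combinations with four PI3K inhibitors were screened at clinically achievable concentrations decreasing by half-log, and spheroid viability was recorded.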

SMILES: Cn1nccc1Nc1nccc(-c2ccn(C(CO)c3ccc(Cl)c(F)c3)c(=O)c2)n1 (configuration not stated) + CC(Nc1ccc2c(c1)OCCn1cc(N3C(=O)OCC3C(F)F)nc1-2)C(N)=O
- IC50 (second compound 0.00316 µM): > 10 µM
- IC50 (second compound 0.01 µM): > 10 µM
- IC50 (second compound 0.0316 µM): > 10 µM
- IC50 (second compound 0.1 µM): > 10 µM
- IC50 (second compound 0.316 µM): > 10 µM
- IC50 (second compound 1 µM): > 10 µM
- viability, T/C (second compound 0.00316 µM, first compound 0.0316 µM): 98.6%
- viability, T/C (second compound 0.00316 µM, first compound 0.1 µM): 97.4%
- viability, T/C (second compound 0.00316 µM, first compound 0.316 µM): 93.3%
- viability, T/C (second compound 0.00316 µM, first compound 1 µM): 96%
- viability, T/C (second compound 0.00316 µM, first compound 3.16 µM): 113%
- viability, T/C (second compound 0.00316 µM, first compound 10 µM): 109%
- viability, T/C (second compound 0.01 µM, first compound 0.0316 µM): 106%
- viability, T/C (second compound 0.01 µM, first compound 0.1 µM): 92.8%
- viability, T/C (second compound 0.01 µM, first compound 0.316 µM): 104%
- viability, T/C (second compound 0.01 µM, first compound 1 µM): 106%
- viability, T/C (second compound 0.01 µM, first compound 3.16 µM): 111%
- viability, T/C (second compound 0.01 µM, first compound 10 µM): 99.6%
- viability, T/C (second compound 0.0316 µM, first compound 0.0316 µM): 86.1%
- viability, T/C (second compound 0.0316 µM, first compound 0.1 µM): 85.2%
- viability, T/C (second compound 0.0316 µM, first compound 0.316 µM): 93.2%
- viability, T/C (second compound 0.0316 µM, first compound 1 µM): 99.7%
- viability, T/C (second compound 0.0316 µM, first compound 3.16 µM): 105%
- viability, T/C (second compound 0.0316 µM, first compound 10 µM): 85.7%
- viability, T/C (second compound 0.1 µM, first compound 0.0316 µM): 103%
- viability, T/C (second compound 0.1 µM, first compound 0.1 µM): 100%
- viability, T/C (second compound 0.1 µM, first compound 0.316 µM): 89.4%
- viability, T/C (second compound 0.1 µM, first compound 1 µM): 92.9%
- viability, T/C (second compound 0.1 µM, first compound 3.16 µM): 87%
- viability, T/C (second compound 0.1 µM, first compound 10 µM): 92.3%
- viability, T/C (second compound 0.316 µM, first compound 0.0316 µM): 71.8%
- viability, T/C (second compound 0.316 µM, first compound 0.1 µM): 71.3%
- viability, T/C (second compound 0.316 µM, first compound 0.316 µM): 65.4%
- viability, T/C (second compound 0.316 µM, first compound 1 µM): 67%
- viability, T/C (second compound 0.316 µM, first compound 3.16 µM): 69.4%
- viability, T/C (second compound 0.316 µM, first compound 10 µM): 71.3%
- viability, T/C (second compound 1 µM, first compound 0.0316 µM): 65.7%
- viability, T/C (second compound 1 µM, first compound 0.1 µM): 60%
- viability, T/C (second compound 1 µM, first compound 0.316 µM): 52%
- viability, T/C (second compound 1 µM, first compound 1 µM): 47.4%
- viability, T/C (second compound 1 µM, first compound 3.16 µM): 58.1%
- viability, T/C (second compound 1 µM, first compound 10 µM): 57.1%
